According to the NIST ThermoML archive (doi:10.1016/j.jct.2016.12.033):

Experiment: mn = molality of the nth substance listed, in mol/kg
Settings: 101.3 kPa, Liquid; for viscosity: Capillary tube (Ostwald / Ubbelohde) method; for mass density: Pycnometric method

Cc1ncc(CO)c(CO)c1O.Cl [5-hydroxy-6-methyl-3,4-pyridinedimethanol hydrochloride] + O
Settings	mass density [kg/m3]	viscosity [mPa·s]
275.15 K, m1 = 0.0101	1000.6	1.687
275.15 K, m1 = 0.0204	1001.28	1.695
275.15 K, m1 = 0.03	1001.91	1.703
275.15 K, m1 = 0.0357	1002.27	1.706
275.15 K, m1 = 0.0401	1002.55	1.708
275.15 K, m1 = 0.0454	1002.9	1.712
275.15 K, m1 = 0.0505	1003.22	1.719
275.15 K, m1 = 0.0557	1003.54	1.722
275.15 K, m1 = 0.0695	1004.4	1.725
275.15 K, m1 = 0.0766	1004.84	1.73
275.15 K, m1 = 0.0801	1005.06	1.735
275.15 K, m1 = 0.0857	1005.41	1.737
275.15 K, m1 = 0.0882	1005.58	1.739
275.15 K, m1 = 0.1004	1006.38	1.75
277.15 K, m1 = 0.0099	1000.61	1.576
277.15 K, m1 = 0.0202	1001.27	1.58
277.15 K, m1 = 0.0252	1001.59	1.584
277.15 K, m1 = 0.0299	1001.89	1.588
277.15 K, m1 = 0.035	1002.22	1.592
277.15 K, m1 = 0.04	1002.54	1.597
277.15 K, m1 = 0.0497	1003.15	1.603
277.15 K, m1 = 0.0598	1003.79	1.606
277.15 K, m1 = 0.0658	1004.16	1.607
277.15 K, m1 = 0.0683	1004.32	1.609
277.15 K, m1 = 0.0753	1004.75	1.615
277.15 K, m1 = 0.0797	1005.02	1.619
277.15 K, m1 = 0.0882	1005.55	1.625
277.15 K, m1 = 0.1004	1006.29	1.629
279.15 K, m1 = 0.01	1000.56	1.477
279.15 K, m1 = 0.0199	1001.18	1.479
279.15 K, m1 = 0.0253	1001.51	1.484
279.15 K, m1 = 0.0298	1001.8	1.488
279.15 K, m1 = 0.0351	1002.13	1.495
279.15 K, m1 = 0.0397	1002.42	1.5
279.15 K, m1 = 0.0492	1003	1.499
279.15 K, m1 = 0.055	1003.36	1.507
279.15 K, m1 = 0.0578	1003.53	1.505
279.15 K, m1 = 0.0648	1003.96	1.515
279.15 K, m1 = 0.069	1004.22	1.522
279.15 K, m1 = 0.0798	1004.9	1.524
279.15 K, m1 = 0.0897	1005.51	1.53
279.15 K, m1 = 0.0996	1006.16	1.535

O=C1O[C@H]([C@@H](O)CO)C([O-])=C1O.[Na+] [sodium L-ascorbate] + O
Settings	mass density [kg/m3]	viscosity [mPa·s]
275.15 K, m1 = 0.01	1001.05	1.68
275.15 K, m1 = 0.0201	1002.2	1.691
275.15 K, m1 = 0.0303	1003.31	1.703
275.15 K, m1 = 0.0348	1003.83	1.703
275.15 K, m1 = 0.04	1004.41	1.706
275.15 K, m1 = 0.0451	1004.94	1.708
275.15 K, m1 = 0.05	1005.5	1.718
275.15 K, m1 = 0.0598	1006.59	1.727
275.15 K, m1 = 0.0699	1007.71	1.736
275.15 K, m1 = 0.0749	1008.27	1.745
275.15 K, m1 = 0.0835	1009.12	1.748
275.15 K, m1 = 0.0849	1009.32	1.747
275.15 K, m1 = 0.0902	1009.85	1.757
275.15 K, m1 = 0.0999	1010.96	1.765
277.15 K, m1 = 0.01	1001.09	1.572
277.15 K, m1 = 0.02	1002.17	1.578
277.15 K, m1 = 0.0301	1003.31	1.586
277.15 K, m1 = 0.0351	1003.85	1.591
277.15 K, m1 = 0.0402	1004.45	1.595
277.15 K, m1 = 0.05	1005.5	1.601
277.15 K, m1 = 0.0601	1006.59	1.609
277.15 K, m1 = 0.065	1007.13	1.616
277.15 K, m1 = 0.0697	1007.7	1.619
277.15 K, m1 = 0.075	1008.2	1.626
277.15 K, m1 = 0.0798	1008.75	1.628
277.15 K, m1 = 0.0851	1009.29	1.634
277.15 K, m1 = 0.0898	1009.82	1.641
277.15 K, m1 = 0.1003	1010.95	1.646
279.15 K, m1 = 0.0105	1001.12	1.479
279.15 K, m1 = 0.0201	1002.16	1.482
279.15 K, m1 = 0.0301	1003.23	1.491
279.15 K, m1 = 0.0348	1003.74	1.494
279.15 K, m1 = 0.0402	1004.33	1.498
279.15 K, m1 = 0.045	1004.84	1.503
279.15 K, m1 = 0.0501	1005.39	1.506
279.15 K, m1 = 0.0602	1006.49	1.516
279.15 K, m1 = 0.065	1007.01	1.52
279.15 K, m1 = 0.0699	1007.54	1.531
279.15 K, m1 = 0.0752	1008.12	1.532
279.15 K, m1 = 0.0852	1009.19	1.538
279.15 K, m1 = 0.0904	1009.74	1.541
279.15 K, m1 = 0.1005	1010.79	1.548

Cc1ncc(C[n+]2csc(CCO)c2C)c(N)n1.Cl.[Cl-] [thiamine hydrochloride] + O
Settings	mass density [kg/m3]	viscosity [mPa·s]
275.15 K, m1 = 0.0101	1001.03	1.692
275.15 K, m1 = 0.0201	1002.1	1.7
275.15 K, m1 = 0.0249	1002.6	1.712
275.15 K, m1 = 0.0302	1003.15	1.718
275.15 K, m1 = 0.04	1004.19	1.728
275.15 K, m1 = 0.0451	1004.73	1.736
275.15 K, m1 = 0.0499	1005.24	1.745
275.15 K, m1 = 0.055	1005.78	1.752
275.15 K, m1 = 0.0611	1006.45	1.759
275.15 K, m1 = 0.0645	1006.81	1.76
275.15 K, m1 = 0.0701	1007.4	1.771
275.15 K, m1 = 0.0751	1007.91	1.776
275.15 K, m1 = 0.0792	1008.33	1.776
275.15 K, m1 = 0.0897	1009.33	1.788
275.15 K, m1 = 0.1001	1010.2	1.8
277.15 K, m1 = 0.0101	1001.04	1.575
277.15 K, m1 = 0.0201	1002.1	1.591
277.15 K, m1 = 0.025	1002.61	1.593
277.15 K, m1 = 0.0299	1003.12	1.604
277.15 K, m1 = 0.0401	1004.18	1.61
277.15 K, m1 = 0.0452	1004.7	1.621
277.15 K, m1 = 0.0501	1005.2	1.627
277.15 K, m1 = 0.055	1005.69	1.632
277.15 K, m1 = 0.0598	1006.18	1.64
277.15 K, m1 = 0.0653	1006.74	1.646
277.15 K, m1 = 0.0704	1007.25	1.66
277.15 K, m1 = 0.0803	1008.25	1.672
277.15 K, m1 = 0.0822	1008.45	1.671
277.15 K, m1 = 0.0898	1009.24	1.678
279.15 K, m1 = 0.008	1000.76	1.481
279.15 K, m1 = 0.02	1002	1.494
279.15 K, m1 = 0.0249	1002.52	1.497
279.15 K, m1 = 0.0301	1003.05	1.505
279.15 K, m1 = 0.04	1004.08	1.512
279.15 K, m1 = 0.045	1004.59	1.517
279.15 K, m1 = 0.0501	1005.11	1.521
279.15 K, m1 = 0.0552	1005.63	1.527
279.15 K, m1 = 0.0603	1006.15	1.529
279.15 K, m1 = 0.0652	1006.65	1.542
279.15 K, m1 = 0.0703	1007.16	1.549
279.15 K, m1 = 0.0751	1007.64	1.556
279.15 K, m1 = 0.0798	1008.1	1.563
279.15 K, m1 = 0.0897	1009.09	1.57
279.15 K, m1 = 0.1001	1010.12	1.581
